Where a name gives a salt, the structure may show the parent alone. Read-outs that look alike come from different tables or passages of the source.
Experiments:
[1] = system: rat experimentally hypertense by aortic coarctation; assay: Antihypertensive activity in the rat experimentally hypertense by aortic coarctation (conscious animal); format: in vivo; conditions: for diastolic arterial pressure / systolic arterial pressure / distolic arterial pressure: mean(SD)
Procedure: The antihypertensive activity of the association of enalapril and nitrendipine was tested in comparison with each one of the isolated components in an experimental model of hypertension by arterial coarction in the rat. Measurement of the arterial pressure was carried out with the animal conscious. The doses tested were as follows: • Enalapril maleate 1 mg/kg (p.o.) • Nitrendipine 3 mg/kg (p.o.) • Enalapril maleate and Nitrendipine (1 and 3) mg/kg (p.o.) • Enalapril maleate and Nitrendipine (0.5 and 1.5) mg/kg (p.o.) The control group received the carrier (CMC Carboxymethylcellulose 1% en distilled water), the administration volume being […] (p.o.).

[2] = system: male patients with slight-moderate AHT; assay: Placebo-controlled open clinical trial in slight-moderate AHT; format: in vivo; conditions: single-drug treatment, 5 mg once a day for 2 weeks (9 patients nitrendipine, 11 patients enalapril)
Procedure: A placebo-controlled, open clinical trial was carried out in male patients with slight-moderate AHT, defined as systolic blood pressure values (SAT) between 165 and 144 mmHg and diastolic blood pressure values (DAT) between 95 and 105 mmHg, taken in decubitus position after 5 minutes' rest.

[3] = at 10 minutes; stable formulation of enalapril sodium salt according to EP-A-0545194; cited from earlier work
[4] = system: patients with congestive heart failure; conditions: long-term treatment (over one year), cited from earlier work
[5] = 3 mg/kg p.o., 0 minutes following administration
[6] = 3 mg/kg p.o., 5 minutes following administration
[7] = 3 mg/kg p.o., 15 minutes following administration
[8] = 3 mg/kg p.o., 30 minutes following administration
[9] = 3 mg/kg p.o., 45 minutes following administration
[10] = 3 mg/kg p.o., 60 minutes following administration
[11] = 3 mg/kg p.o., 120 minutes following administration
[12] = 3 mg/kg p.o., 240 minutes following administration
[13] = 3 mg/kg p.o., 360 minutes following administration
[14] = 3 mg/kg p.o., 540 minutes following administration
[15] = 1 mg/kg p.o., 0 minutes following administration
[16] = 1 mg/kg p.o., 5 minutes following administration
[17] = 1 mg/kg p.o., 15 minutes following administration
[18] = 1 mg/kg p.o., 30 minutes following administration
[19] = 1 mg/kg p.o., 45 minutes following administration
[20] = 1 mg/kg p.o., 60 minutes following administration
[21] = 1 mg/kg p.o., 120 minutes following administration
[22] = 1 mg/kg p.o., 240 minutes following administration
[23] = 1 mg/kg p.o., 360 minutes following administration
[24] = 1 mg/kg p.o., 540 minutes following administration

For `CCOC(=O)C1=C(C)NC(C)=C(C(=O)OC)C1c1cccc([N+](=O)[O-])c1` (racemic) [Nitrendipine, ethyl and methyl ester of the acid 1,4-dihydro-2,6-dimethyl-4-(3-nitrophenyl)-3,5-pyridindicarboxylic], the diastolic arterial pressure [1, 5] was 136(5), the systolic arterial pressure [1, 5] was 172(6) and the diastolic arterial pressure [1, 6] was 105(1). The systolic arterial pressure [1, 6] was 119(2), the diastolic arterial pressure [1, 7] was 83(4) and the systolic arterial pressure [1, 7] was 117(6). The diastolic arterial pressure [1, 8] was 84(2), the systolic arterial pressure [1, 8] was 112(4) and the diastolic arterial pressure [1, 9] was 88(5). For the same compound, the systolic arterial pressure [1, 9] was 115(3), the diastolic arterial pressure [1, 10] was 92(1) and the systolic arterial pressure [1, 10] was 119(6). For the same compound, the diastolic arterial pressure [1, 11] was 113(4), the systolic arterial pressure [1, 11] was 141(5) and the diastolic arterial pressure [1, 12] was 128(3). The systolic arterial pressure [1, 12] was 163(2), the diastolic arterial pressure [1, 13] was 132(2) and the systolic arterial pressure [1, 13] was 169(1). For the same compound, the diastolic arterial pressure [1, 14] was 131(5), the systolic arterial pressure [1, 14] was 160(5) and the “return to basal values following administration” value ([1]; oral administration, 3 mg/kg) was 4 h. The “blood pressure normalized, number of patients” value [2] was 1 patients.

With `CCOC(=O)[C@H](CCc1ccccc1)N[C@@H](C)C(=O)N1CCC[C@H]1C(=O)O` [Enalapril maleate, 1-(N-((S)-1-ethoxycarbonyl-3-fenilpropyl) -L-alanil)-L-prolina] the systolic arterial pressure [1, 15] was 168(6), the systolic arterial pressure [1, 16] was 165(5) and the systolic arterial pressure [1, 17] was 144(2). The systolic arterial pressure [1, 18] was 139(3), the systolic arterial pressure [1, 19] was 139(6) and the systolic arterial pressure [1, 20] was 134(1). For the same compound, the systolic arterial pressure [1, 21] was 141(3), the systolic arterial pressure [1, 22] was 146(1) and the systolic arterial pressure [1, 23] was 148(4). The systolic arterial pressure [1, 24] was 165(6), the antihypertensive effect ([1]; oral administration, 1 mg/kg) was “moderate antihypertensive effect” and the “antihypertensive effect sustained following administration” value ([1]; oral administration, 1 mg/kg) was “up to 6 hours”.

In the case of `CCOC(=O)[C@H](CCc1ccccc1)N[C@@H](C)C(=O)N1CCC[C@H]1C(=O)O` [enalapril, 1-(N-((S)-1-ethoxycarbonyl-3-fenilpropyl) -L-alanil)-L-prolina], the distolic arterial pressure [1, 15] was 138(5), the distolic arterial pressure [1, 16] was 138(3) and the distolic arterial pressure [1, 17] was 123(1). The distolic arterial pressure [1, 18] was 116(4), the distolic arterial pressure [1, 19] was 117(1) and the distolic arterial pressure [1, 20] was 109(1). For the same compound, the distolic arterial pressure [1, 21] was 116(5), the distolic arterial pressure [1, 22] was 116(3) and the distolic arterial pressure [1, 23] was 117(2). For the same compound, the distolic arterial pressure [1, 24] was 126(4), the “dissolution rate of enalapril” value [3] was 100% and the “improvement of mortality and morbidity rates” value ([4]; severe heart failure (CONSENSUS)) was “approximately 30%”. The “improvement of mortality and morbidity rates” value ([4]; slight and moderate heart failure (SOLVD)) was “approximately 15%” and the “blood pressure normalized, number of patients” value [2] was 2 patients.

Source: patent EP0884054B9, “Fixed-dose association of an angiotensin-converting enzyme inhibitor and of a calcium channel antagonist for the treatment of cardiovascular illnesses” (Procter & Gamble Pharmaceuticals S.A.R.L., priority 1997, dated 1998)
